# Data: US6914045B2, “Glycopeptide antibiotics” (Wyeth Holdings Corporation, priority 2001, dated 2005)
# Key:
# [1] = anatomic pathology (histopathology of heart and kidney) in mice; assay type: in vivo; conditions: CD-1 mice, 20 mg/kg intravenously daily for 9 days, necropsy day 10, microscopic histopathology
# Procedure: Samples of tissues from necropsied mice were formalin-fixed, paraffin-embedded, sectioned, stained with hematoxylin and eosin, and examined microscopically. Histopathologic findings were recorded. These findings were subjectively graded on a scale corresponding to slight, mild, moderate, marked and severe as compared to untreated controls.
# [2] = tested on: Streptococcus sp.; test: in vitro antibacterial evaluation, MIC by broth dilution; assay type: cell-based; conditions: broth dilution, 18 hours at 35° C.
# Method in brief: (§1)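 MIC, the lowest antibiotic concentration preventing growth, was read across 64-0.06 μg/mL with 5×10^5 CFU/mL inoculum. Method followed NCCLS M7-A2 broth dilution using Mueller-Hinton II; Gram-positive strains covered recent methicillin-, penicillin- and/or vancomycin-resistant clinical isolates.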
# [3] = tested on: Enterococcus sp.; test: as above; assay type: cell-based; conditions: broth dilution, 18 hours at 35° C.
# Method in brief: as §1
# [4] = tested on: Staphylococcus sp.; test: as above; assay type: cell-based; conditions: broth dilution, 18 hours at 35° C.
# Method in brief: as §1
# [5] = tested on: Escherichia coli; test: as above; assay type: cell-based; conditions: 18 hours at 35° C.
# Method in brief: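 Read-out: the lowest concentration at which the test strain fails to grow. Serial dilutions (64-0.06 μg/mL) in Muller-Hinton II […], 5×10^5 CFU/mL inoculum, NCCLS M7-A2 procedure.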
# [6] = clinical pathology (serum clinical chemistry) in mice; assay type: in vivo; conditions: CD-1 mice, 20 mg/kg intravenously daily for 9 days, sera day 10
# Procedure: 20-day-old CD-1 mice were divided into a vehicle control group (5 mice) and a treatment group (5 mice). Samples of glycopeptide antibiotics were administered at 20 mg/kg intravenously daily for 9 days.
structure (smiles),measurement,setting,value
CC(c1ccccc1)C1NC(=O)CNC(=O)C(CO)NC(=O)C(CC2CNC(=N)N2C2OC(CO)C(O)C(O)C2O)NC(=O)C(CC2CNC(=N)N2)NC(=O)C(Cc2ccc(OC3OC(CO)C(OC4OC(CO)C(O)C(O)C4O)C(O)C3O)cc2)NC1=O (centres unmarked) [Example 277a],"Anatomical Pathology (Day 10), Heart",[1],0
same,"Anatomical Pathology (Day 10), Kidney",[1],++
same,MIC Streptococcus pneumoniae (ATCC 6301),[2]; strain ATCC 6301,>128 µg/mL
same,MIC Streptococcus pneumoniae (GC 1894),[2]; strain GC 1894,>128 µg/mL
same,MIC Streptococcus pyogenes (GC 4563),[2]; strain GC 4563,>128 µg/mL
same,MIC Streptococcus agalactiae (GC 4564),[2]; strain GC 4564,>128 µg/mL
same,MIC Streptococcus pneumoniae (GC 4565),[2]; strain GC 4565,>128 µg/mL
same,MIC Enterococcus avium (GC 4558),[3]; Enterococcus avium (GC 4558),128 µg/mL
same,MIC Enterococcus faecalis (ATCC 29212),[3]; Enterococcus faecalis (ATCC 29212),>128 µg/mL
same,MIC Enterococcus faecalis (GC 4553),[3]; Enterococcus faecalis (GC 4553),>128 µg/mL
same,MIC Enterococcus faecalis (GC 4554),[3]; Enterococcus faecalis (GC 4554),>128 µg/mL
same,MIC Enterococcus faecalis (GC 6189),[3]; Enterococcus faecalis (GC 6189),>128 µg/mL
same,MIC Enterococcus faecium (GC 2243),[3]; Enterococcus faecium (GC 2243),>128 µg/mL
same,MIC Enterococcus faecium (GC 4556),[3]; Enterococcus faecium (GC 4556),>128 µg/mL
same,MIC Enterococcus faecium (GC 4557),[3]; Enterococcus faecium (GC 4557),128 µg/mL
same,MIC Enterococcus faecalis (ATCC 29212),[3]; strain ATCC 29212,>128 µg/mL
same,MIC Enterococcus faecalis (GC 2242),[3]; strain GC 2242,>128 µg/mL
same,MIC Enterococcus faecium (GC 2243),[3]; strain GC 2243,>128 µg/mL
same,MIC Enterococcus faecalis (GC 2691),[3]; strain GC 2691,>128 µg/mL
same,MIC Enterococcus faecalis (GC 3059),[3]; strain GC 3059,>128 µg/mL
same,MIC Enterococcus faecalis (GC 4552),[3]; strain GC 4552,>128 µg/mL
same,MIC Enterococcus faecalis (GC 4553),[3]; strain GC 4553,>128 µg/mL
same,MIC Enterococcus faecalis (GC 4554),[3]; strain GC 4554,>128 µg/mL
same,MIC Enterococcus faecium (GC 4556),[3]; strain GC 4556,>128 µg/mL
same,MIC Enterococcus faecium (GC 4557),[3]; strain GC 4557,128 µg/mL
same,MIC Enterococcus avium (GC 4558),[3]; strain GC 4558,128 µg/mL
same,MIC Enterococcus faecalis (GC 6189),[3]; strain GC 6189,>128 µg/mL
same,MIC Coagulase Negative Staphylococcus (GC 4547),[4],>128 µg/mL
same,MIC Coagulase Negative Staphylococcus (GC 4548),[4],>128 µg/mL
same,MIC Coagulase Negative Staphylococcus (GC 4549),[4],>128 µg/mL
same,MIC Coagulase Negative Staphylococcus (GC 4551),[4],>128 µg/mL
same,MIC Staphylococcus aureus (ATCC 29213),[4],>128 µg/mL
same,MIC Staphylococcus aureus (GC 1131),[4],>128 µg/mL
same,MIC Staphylococcus aureus (GC 3051),[4],>128 µg/mL
same,MIC Staphylococcus aureus (GC 3053),[4],>128 µg/mL
same,MIC Staphylococcus aureus (GC 4541),[4],>128 µg/mL
same,MIC Staphylococcus aureus (GC 4542),[4],>128 µg/mL
same,MIC Staphylococcus aureus (GC 4544),[4],>128 µg/mL
same,MIC Staphylococcus aureus (GC 4545),[4],>128 µg/mL
same,MIC Staphylococcus aureus-SMITH (GC 4543),[4],>128 µg/mL
same,MIC Staphylococcus haemolyticus (GC 4546),[4],>128 µg/mL
same,MIC Staphylococcus aureus (ATCC 29213),[4]; strain ATCC 29213,>128 µg/mL
same,MIC Staphylococcus aureus (GC 1131),[4]; strain GC 1131,>128 µg/mL
same,MIC Staphylococcus aureus (GC 3051),[4]; strain GC 3051,>128 µg/mL
same,MIC Staphylococcus aureus (GC 3053),[4]; strain GC 3053,>128 µg/mL
same,MIC Staphylococcus aureus (GC 4541),[4]; strain GC 4541,>128 µg/mL
same,MIC Staphylococcus aureus (GC 4542),[4]; strain GC 4542,>128 µg/mL
same,MIC Staphylococcus aureus (GC 4544),[4]; strain GC 4544,>128 µg/mL
same,MIC Staphylococcus aureus (GC 4545),[4]; strain GC 4545,>128 µg/mL
same,MIC Staphylococcus haemolyticus (GC 4546),[4]; strain GC 4546,>128 µg/mL
same,MIC Coagulase Negative Staphylococcus (GC 4547),[4]; strain GC 4547,>128 µg/mL
same,MIC Coagulase Negative Staphylococcus (GC 4548),[4]; strain GC 4548,>128 µg/mL
same,MIC Coagulase Negative Staphylococcus (GC 4549),[4]; strain GC 4549,>128 µg/mL
same,MIC Coagulase Negative Staphylococcus (GC 4551),[4]; strain GC 4551,>128 µg/mL
same,MIC Staphylococcus aureus-SMITH (GC 4543),[4]; strain SMITH GC 4543,>128 µg/mL
same,MIC Escherichia coli (ATCC 25922),[5]; Escherichia coli (ATCC 25922),>128 µg/mL
same,MIC Escherichia coli (GC 4559),[5]; Escherichia coli (GC 4559),>128 µg/mL
same,MIC Escherichia coli (GC 4560),[5]; Escherichia coli (GC 4560),>128 µg/mL
same,"Clinical Chemistry (Day 10) % of Control, BUN",[6],+110%
